Starred links: 1 amine or outer side, 2 acyl side, 3 side chain; linkers in the order of their positions; H or OH if unused. Positions of bridges follow the written chain, without caps; N, C: chain ends. Non-standard residues stand in square brackets, D forms with d. Residues, ends and D or L forms follow the SMILES beside them. *: point of attachment. hPhe(3-Cl-4-CF3) = N[C@@H](CCc1ccc(C(F)(F)F)c(Cl)c1)C(=O)O; NPrAsp = CCCN([C@@H](CC(=O)[*:3])C(=O)[*:2])[*:1]; hPhe(4-CF3) = N[C@@H](CCc1ccc(C(F)(F)F)cc1)C(=O)O; NMeMet(O2) = CN[C@@H](CCS(C)(=O)=O)C(=O)O; NMeAla(cPent) = CN[C@@H](CC1CCCC1)C(=O)O; NMeGly(cPent) = CN[C@H](C(=O)O)C1CCCC1; Pro(4,4-F2) = O=C(O)[C@@H]1CC(F)(F)CN1; NMeAla(cPr) = CN[C@@H](CC1CC1)C(=O)O; NMeCha = CN[C@@H](CC1CCCCC1)C(=O)O; NMeAhp(2) = CCCCC[C@H](NC)C(=O)O; NMeChg = CN[C@H](C(=O)O)C1CCCCC1; NMeD = CN[C@@H](CC(=O)O)C(=O)O; NMeL = CN[C@@H](CC(C)C)C(=O)O; NMeV = CN[C@H](C(=O)O)C(C)C; Morpholide = C1CN(*)CCO1; NMeA = CN[C@@H](C)C(=O)O; Piperidide = C1CCN(*)CC1; Ac5c = NC1(C(=O)O)CCCC1; Aze = O=C(O)[C@@H]1CCN1; Sar = CNCC(=O)O
Experiments:
[1] = biological target: T1, Kras and SOS1 (biotin-tagged human Kras loaded with GDP, His-tagged human SOS1) (Homo sapiens, UniProt P01116, G12D); experiment: Protein-protein interaction inhibition between Kras and SOS1 (KrasGl2D-SOS PPI) using AlphaScreen; type: binding; conditions: AlphaScreen; biotin-tagged human Kras loaded with GDP, His-tagged human SOS1; read-out: KRAS G12D-SOS PPI IC50
T1 construct: made in house; host or cells: E. coli (stated for Kras only)
T1 sequence (P01116 1-188 isoform P01116-2 G12D): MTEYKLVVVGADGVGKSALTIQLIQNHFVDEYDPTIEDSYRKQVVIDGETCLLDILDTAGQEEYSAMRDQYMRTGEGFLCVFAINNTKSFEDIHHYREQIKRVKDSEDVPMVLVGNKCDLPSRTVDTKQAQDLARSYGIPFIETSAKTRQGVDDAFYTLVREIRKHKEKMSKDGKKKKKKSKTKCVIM
Summary of the method: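 AlphaScreen format: Ni donor beads capture His-SOS1, streptavidin acceptor beads capture biotinylated Kras (E. coli-expressed, GDP-loaded post-purification). Excite 680 nm, read 520-620 nm.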

[2] = system: Human pancreatic cancer cell line AsPC-1; experiment: Measurement of AsPC-1 cell growth inhibition (AsPC-1 CGI); type: cell-based; conditions: 96 h
Summary of the method: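 AsPC-1 cells in 15% FBS RPMI-1640 were exposed to test compound for 96 hours at 37° C, with CellTiter-Glo as endpoint.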

Row | SMILES | IC50 [1] [nM] | IC50 [2] [nM]
1 | CCCCC[C@H]1C(=O)N[C@@H]([C@@H](C)CC)C(=O)N[C@@H](C)C(=O)N2CC[C@H]2C(=O)N(C)[C@@H](C2CCCC2)C(=O)N(C)CC(=O)N[C@@H](CCc2ccc(C(F)(F)F)c(Cl)c2)C(=O)N2CCC[C@H]2C(=O)NC2(CCCC2)C(=O)N(C)[C@@H](C2CCCC2)C(=O)N(C)[C@H](C(=O)N2CCOCC2)CC(=O)N1C [Compound 11] ([NMeAhp(2)]IA[Aze][NMeGly(cPent)][Sar][hPhe(3-Cl-4-CF3)]P[Ac5c][NMeGly(cPent)][NMeD]-Morpholide; lactam N-11) | 1.5 | 50 to 100
2 | CC[C@H](C)[C@@H]1NC(=O)[C@H](CC(C)C)N(C)C(=O)C[C@@H](C(=O)N2CCCCC2)N(C)C(=O)[C@H](CC2CCCC2)N(C)C(=O)C2(CCCC2)NC(=O)[C@@H]2CCCN2C(=O)[C@H](CCc2ccc(C(F)(F)F)c(Cl)c2)NC(=O)CN(C)C(=O)[C@H](CC2CCCCC2)N(C)C(=O)CN(C)C(=O)CN(C)C1=O [Compound 30] ([NMeL]I[Sar][Sar][NMeCha][Sar][hPhe(3-Cl-4-CF3)]P[Ac5c][NMeAla(cPent)][NMeD]-Piperidide; lactam N-11) | 4.6 | 100 to 500
3 | CC[C@H](C)[C@@H]1NC(=O)[C@H](CC(C)C)N(C)C(=O)C[C@@H](C(=O)N2CCCCC2)N(C)C(=O)[C@H](C2CCCCC2)N(C)C(=O)C2(CCCC2)NC(=O)[C@@H]2CC(F)(F)CN2C(=O)[C@H](CCc2ccc(C(F)(F)F)c(Cl)c2)NC(=O)CN(C)C(=O)[C@H](CC2CCCCC2)N(C)C(=O)CN(C)C(=O)CN(C)C1=O [Compound 48] ([NMeL]I[Sar][Sar][NMeCha][Sar][hPhe(3-Cl-4-CF3)][Pro(4,4-F2)][Ac5c][NMeChg][NMeD]-Piperidide; lactam N-11) | 0.97 | 20 to 50
4 | CC[C@H](C)[C@@H]1NC(=O)[C@H](CCS(C)(=O)=O)N(C)C(=O)C[C@@H](C(=O)N2CCCCC2)N(C)C(=O)[C@H](C2CCCCC2)N(C)C(=O)C2(CCCC2)NC(=O)[C@@H]2CCCN2C(=O)[C@H](CCc2ccc(C(F)(F)F)c(Cl)c2)NC(=O)CN(C)C(=O)[C@H](CC2CCCCC2)N(C)C(=O)CN(C)C(=O)CN(C)C1=O [Compound 52] ([NMeMet(O2)]I[Sar][Sar][NMeCha][Sar][hPhe(3-Cl-4-CF3)]P[Ac5c][NMeChg][NMeD]-Piperidide; lactam N-11) | 0.66 | 100 to 500
5 | CCCN1C(=O)[C@H](C2CCCC2)N(C)C(=O)C2(CCCC2)NC(=O)[C@@H]2CCCN2C(=O)[C@H](CCc2ccc(C(F)(F)F)c(Cl)c2)NC(=O)CN(C)C(=O)[C@H](CC2CCCCC2)N(C)C(=O)CN(C)C(=O)CN(C)C(=O)[C@H]([C@@H](C)CC)NC(=O)[C@H](C)N(C)C(=O)C[C@H]1C(=O)N1CCCCC1 [Compound 56] ([NMeA]I[Sar][Sar][NMeCha][Sar][hPhe(3-Cl-4-CF3)]P[Ac5c][NMeGly(cPent)][NPrAsp]-Piperidide; lactam N-11) | 2.3 | 20 to 50
6 | CC[C@H](C)[C@@H]1NC(=O)[C@H](CC2CCCC2)N(C)C(=O)C[C@@H](C(=O)N2CCCCC2)N(C)C(=O)[C@H](C(C)C)N(C)C(=O)C2(CCCC2)NC(=O)[C@@H]2CCCN2C(=O)[C@H](CCc2ccc(C(F)(F)F)c(Cl)c2)NC(=O)CN(C)C(=O)[C@H](CC2CCCCC2)N(C)C(=O)CN(C)C(=O)CN(C)C1=O [Compound 60] ([NMeAla(cPent)]I[Sar][Sar][NMeCha][Sar][hPhe(3-Cl-4-CF3)]P[Ac5c][NMeV][NMeD]-Piperidide; lactam N-11) | 7.9 | 100 to 500
7 | CC[C@H](C)[C@@H]1NC(=O)[C@H](CC2CC2)N(C)C(=O)C[C@@H](C(=O)N2CCCCC2)N(C)C(=O)[C@H](C2CCCCC2)N(C)C(=O)C2(CCCC2)NC(=O)[C@@H]2CCCN2C(=O)[C@H](CCc2ccc(C(F)(F)F)c(Cl)c2)NC(=O)CN(C)C(=O)[C@H](CC2CCCCC2)N(C)C(=O)CN(C)C(=O)CN(C)C1=O [Compound 68] ([NMeAla(cPr)]I[Sar][Sar][NMeCha][Sar][hPhe(3-Cl-4-CF3)]P[Ac5c][NMeChg][NMeD]-Piperidide; lactam N-11) | 0.58 | 50 to 100
8 | CC[C@H](C)[C@@H]1NC(=O)[C@H](C)N(C)C(=O)C[C@@H](C(=O)N2CCCCC2)N(C)C(=O)[C@H](C2CCCCC2)N(C)C(=O)C2(CCCC2)NC(=O)[C@@H]2CCCN2C(=O)[C@H](CCc2ccc(C(F)(F)F)cc2)NC(=O)CN(C)C(=O)[C@H](CC2CCCCC2)N(C)C(=O)CN(C)C(=O)CN(C)C1=O [Compound 72] ([NMeA]I[Sar][Sar][NMeCha][Sar][hPhe(4-CF3)]P[Ac5c][NMeChg][NMeD]-Piperidide; lactam N-11) | 0.47 | 100 to 500

From patent publication US12371454B2, “Cyclic peptide compound having Kras inhibitory action” (priority 2019, dated 2025)
